Reference: ChEMBL document CHEMBL6083227, “Novel sulfonamides unveiled as potent anti-lung cancer agents via tumor pyruvate kinase M2 activation” (RSC Med Chem, 2024)

Key:
A549 = assay: Antiproliferative activity against human A549 cells incubated for 48 hrs by Alamar blue staining based assay; details: A549, 48 h
BEAS-2B = assay: Antiproliferative activity against human BEAS-2B cells incubated for 48 hrs by Alamar blue staining based assay
Pyruvate kinase PKM = Pyruvate kinase PKM (Homo sapiens, UniProt P14618); assay: Activation of recombinant human PKM2 using pyruvate as substrate measured for 20 mins in presence of beta-NADH by LDH-coupled assay
Pyruvate kinase PKM, sequence (P14618 whole entry): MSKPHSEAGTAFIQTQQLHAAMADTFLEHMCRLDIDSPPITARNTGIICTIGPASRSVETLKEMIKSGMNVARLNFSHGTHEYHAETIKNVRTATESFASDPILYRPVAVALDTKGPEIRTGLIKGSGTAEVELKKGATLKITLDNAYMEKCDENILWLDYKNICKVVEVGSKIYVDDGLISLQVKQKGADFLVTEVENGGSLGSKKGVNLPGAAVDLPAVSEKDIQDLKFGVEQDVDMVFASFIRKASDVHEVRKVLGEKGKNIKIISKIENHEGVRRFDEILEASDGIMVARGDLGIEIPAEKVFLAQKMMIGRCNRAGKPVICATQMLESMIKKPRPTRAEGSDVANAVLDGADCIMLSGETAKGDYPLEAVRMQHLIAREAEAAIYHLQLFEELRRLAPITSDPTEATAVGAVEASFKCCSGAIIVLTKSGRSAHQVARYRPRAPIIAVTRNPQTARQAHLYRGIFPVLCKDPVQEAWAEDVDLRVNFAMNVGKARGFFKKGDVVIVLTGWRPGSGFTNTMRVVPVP

Structure (SMILES)	IC50 (A549) [µM]	EC50 (Pyruvate kinase PKM) [µM]	IC50 (BEAS-2B) [µM]
Nc1cccc(S(=O)(=O)N2CCCN(S(=O)(=O)c3ccc4c(c3)OCCO4)CC2)c1	1.46	–	35.2
COc1ccc(Br)cc1S(=O)(=O)N1CCN(CC(=O)c2cnc3ccccn23)CC1	1.44	0.329	30.9
O=C(CN1CCN(S(=O)(=O)c2ccc(F)cc2)CC1)c1cnc2ccccn12	1.68	0.382	52.2
O=C(CN1CCN(S(=O)(=O)c2ccc(C(F)(F)F)cc2)CC1)c1cnc2ncccn12	1.23	0.211	15.9
O=C(CN1CCN(S(=O)(=O)c2cccc(Br)c2)CC1)c1cnc2ncccn12	1.14	0.634	39
COc1ccc(S(=O)(=O)N2CCN(CC(=O)c3cnc4ccccn34)CC2)cc1	1.83	0.042	46.1
O=C(CN1CCN(S(=O)(=O)c2ccc(F)cc2Cl)CC1)c1cnc2ccccn12	0.95	0.205	37.8
O=C(CN1CCN(S(=O)(=O)C2CC2)CC1)c1cnc2ncccn12	1.76	0.092	53.5
Cc1ccc(S(=O)(=O)N2CCN(CC(=O)c3cnc4ncccn34)CC2)cc1	1	0.105	39.6
Cc1cc(C)c(S(=O)(=O)N2CCN(CC(=O)c3cnc4ccccn34)CC2)c(C)c1	1.68	0.181	11.5
COc1ccc(-c2ccc(S(=O)(=O)N3CCN(CC(=O)c4cnc5ncccn45)CC3)cc2)cc1	1.6	0.435	9.13
O=C(CN1CCN(S(=O)(=O)C2CCCCC2)CC1)c1cnc2ccccn12	1.65	0.889	60.6
O=C(CN1CCN(S(=O)(=O)c2cc(F)ccc2F)CC1)c1cnc2ncccn12	1.26	0.648	26.5
O=C(CN1CCN(S(=O)(=O)c2ccccc2)CC1)c1cnc2ccccn12	1.69	0.141	44.7

Continued by falling IC50 (A549), values first:

IC50 (A549) [µM]	EC50 (Pyruvate kinase PKM) [µM]	Structure (SMILES)	IC50 (BEAS-2B) [µM]
1.72	0.612	O=C(CN1CCN(S(=O)(=O)c2ccc(F)cc2Cl)CC1)c1cnc2ncccn12	16.8
1.67	0.606	O=C(CN1CCN(S(=O)(=O)c2cccc(Br)c2)CC1)c1cnc2ccccn12	39.9
1.64	–	COc1cccc2c1C(=O)c1c(O)c3c(c(O)c1C2=O)C[C@@](O)(C(=O)CO)C[C@@H]3O[C@H]1C[C@H](N)[C@H](O)[C@H](C)O1 [DOXORUBICIN]	24.7
1.51	0.147	N#Cc1ccccc1S(=O)(=O)N1CCN(CC(=O)c2cnc3ccccn23)CC1	55.7
1.46	0.649	O=C(CN1CCN(S(=O)(=O)c2ccc([N+](=O)[O-])cc2)CC1)c1cnc2ccccn12	20.1
1.3	0.55	O=C(CN1CCN(S(=O)(=O)c2ccc(C(F)(F)F)cc2)CC1)c1cnc2ccccn12	61.4
1.14	0.134	O=C(CN1CCN(S(=O)(=O)c2cccs2)CC1)c1cnc2ccccn12	30.5
